From patent US20250000991A1, “NECTIN-4 ANTIBODIES AND ANTIBODY-DRUG CONJUGATES” (Eli Lilly and Company, priority 2023, published 2025) come the findings set out here.

pEC50, pIC50: −log10 of the molar value. Square brackets hold non-standard residues; d marks the D form. Peptide text beside a SMILES is read from it. * marks the point of attachment. Dolaproine = CO[C@@H]([C@@H]1CCCN1)[C@@H](C)C(=O)O; Dil = CC[C@H](C)[C@H](NC)[C@@H](CC(=O)O)OC; X1 = C[C@@H](N*)[C@@H](O)c1ccccc1; NMeV = CN[C@H](C(=O)O)C(C)C

Series [1] has as its system UMUC3-Luc-GFP + UMUC3-hNectin4 clone F7. The series is described as follows: Bystander killing of UMUC3-Luc-GFP cells co-cultured with UMUC3-hNectin4 clone F7 (ONE-Glo). It is filed as cell-based, human. On the procedure: UMUC3 cell line was engineered to express human Nectin4 and two clonal populations with different levels of expression were selected. In flat white clear-bottom 96-well plates, UMUC3-hNectin4 clone F7/UMUC3-Luc-GFP cells were mixed and seeded at a total of 1500 cells/well/100 ul with a ratio of 4:1 in assay medium (MEM+1× GlutaMax+10% Heat Inactivated Fetal Bovine Serum+1 mM sodium pyruvate). UMUC3-hNectin4 clone E3/UMUC3-Luc-GFP cells were mixed and seeded at a total of 2100 cells/well/100 ul with a ratio of 6:1 in assay medium. UMUC3-Luc-GFP cells were negative for nectin-4 expression. Plates were incubated at 37° C. with 5% CO2 overnight. […] Plates were read after 5-days treatment using ONE-GloTM Luciferase Assay System. […] Luminescence was read in the SpectraMax M5e. […] Percentage of UMUC3-Luc-GFP killing was calculated against no treatment as 0%. Data was graphed and analyzed using Graphpad Prism version 9.5.1. IC50 was determined via log(inhibitor) vs. response (three parameters) curve fitting for bystander activity and log(inhibitor) vs. response (four parameters) for free payload cytotoxicity. […] In experiments run as essentially described herein, the bystander effects of four nectin-4 ADCs described herein and enfortumab vedotin were evaluated using the UMUC3-hNectin-4 cloneF7/UMUC3-Luciferase-GFP cell pair. […]

In series [2] the test system is T24-hNectin-4 clone 14 cells (MMAE-resistant). Briefly: ADC cytotoxicity in MMAE-resistant cells (CellTiter-Glo). It counts as cell-based, human. The note with it: T24-hNectin-4 clone 14, 5 days. On the procedure:
In T24 nectin-4 cells that are resistant to MMAE, two nectin-4 ADCs described herein and enfortumab vedotin were tested for activity. T24-hNectin-4 clone 14 cells were seeded at 500 per well in 100 ul culture medium, in white clear-bottom 96-well tissue culture plates and incubated at 37° C. with 5% CO2 overnight. The next day each ADC was serially diluted 1:4, with a starting concentration of 400 nM, in culture medium. One-hundred ul of each ADC dilution was added per well and the plates were covered with a Breathe-Easy® sealing membrane and incubated at 37° C. with 5% CO2. After 5 days of treatment, the plates were removed from the incubator, placed at room temperature for 15 minutes, and 100 ul medium per well was removed. One hundred ul of CellTiter-Glo reagent was added per well and the plates were incubated at room temperature for 10 minutes. RLUs (Relative Light Units) were obtained by SpectraMax M5e with SoftMax Pro 5.4. Percentage of cell killing was calculated against DMSO only (for free payloads) or no treatment (for ADCs) as 0%. Data was graphed and analyzed using Graphpad Prism version 9.5.1. IC50s were determined via log(inhibitor) vs. response-variable slope (four parameters) curve fitting.

For series [3], the system named is UMUC3-Luc-GFP + UMUC3-hNectin4 clone E3. Briefly: Bystander killing of UMUC3-Luc-GFP cells co-cultured with UMUC3-hNectin4 clone E3 (ONE-Glo). It counts as cell-based, human. The note with it: UMUC3-Luc-GFP + UMUC3-hNectin4 clone E3, ratio 6:1, 5 days; read-out: IC50 of bystander effect. The protocol: (§1) UMUC3 cell line was engineered to express human Nectin4 and two clonal populations with different levels of expression were selected. In flat white clear-bottom 96-well plates, UMUC3-hNectin4 clone F7/UMUC3-Luc-GFP cells were mixed and seeded at a total of 1500 cells/well/100 ul with a ratio of 4:1 in assay medium (MEM+1× GlutaMax+10% Heat Inactivated Fetal Bovine Serum+1 mM sodium pyruvate). UMUC3-hNectin4 clone E3/UMUC3-Luc-GFP cells were mixed and seeded at a total of 2100 cells/well/100 ul with a ratio of 6:1 in assay medium. UMUC3-Luc-GFP cells were negative for nectin-4 expression. Plates were incubated at 37° C. with 5% CO2 overnight. Next day, ADCs were added at final working concentration from 100 nM, 1:3 serially diluted in assay medium. To assess sensitivity of cell line to free payload, free payloads were added at final working concentration from 200 nM, 1:3 serially diluted in assay medium. […] Plates were read after 5-days treatment using ONE-Glo™ Luciferase Assay System. […] Luminescence was read in the SpectraMax M5e. […] Percentage of UMUC3-Luc-GFP killing was calculated against no treatment as 0%. Data was graphed and analyzed using Graphpad Prism version 9.5.1. IC50 was determined via log(inhibitor) vs. response (three parameters) curve fitting for bystander activity and log(inhibitor) vs. response (four parameters) for free payload cytotoxicity.

Series [4] deals with UMUC3-Luc-GFP Nectin-4 negative cells. Briefly: Free payload cytotoxicity on UMUC3-Luc-GFP cells. It is filed as cell-based. The note with it: 5 days. On the procedure:
as §1

Series [5] concerns T24-human nectin4 clone147 cells. The series is described as follows: In vitro CDC assay with human serum complement. The note with it: nectin-4 expressing T24 cell line. It is filed as cell-based. The protocol:
T24 cell line was engineered to express high level of human Nectin4 and clonally selected. T24-human nectin4 clone147 cells were added in white clear-bottom 96-well tissue culture plates in assay medium (McCoy's 5A+1× GlutaMax+10% Heat Inactivated Fetal Bovine Serum) and incubated in the incubator at 37° C. with 5% CO2 overnight. Next day, 50 ul/well antibodies were added at final working concentration from 200 nM, 1:3 serially diluted in assay medium and incubated at 37° C. with 5% CO2 for one hour. Diluted human serum complement (1:3) was then added at 50 ul/well in assay medium and incubated at 37° C. with 5% CO2 for 3 hours. Plate was read using CellTiter-Glo Luminescent Cell Viability Assay. 100 ul/well CellTiter-Glo reagent were incubated in plates at room temperature for 10 min. Luminescence was read in the SpectraMax M5e. RLUs (Relative Light Units) were obtained with SoftMax Pro 5.4. Percentage of cell killing was calculated against no treatment. Data was graphed and analyzed using GraphPad Prism version 9.5.1.

Series [6] concerns T24 mScarlet clone 5 Nectin-4 negative cells. The series is described as follows: Bystander killing of T24-mScarlet clone 5 cells co-cultured with T24-human nectin4 clone108 (imaging). The note with it: T24-mScarlet clone5 : T24-human nectin4 clone108 9:1, 5 days, ADC Formula XI DAR 8; read-out: IC50 of bystander effect. It is filed as cell-based. On the procedure: T24 cell line was engineered to express mScarlet and clonally selected to test in bystander assay. T24-mScarlet clone5 and T24-human nectin4 clone108 were mixed and seeded at a total of 1000 cells/well/100 ul with a ratio of 9:1 in culture medium (McCoy's 5A+1× GlutaMax+10% Heat Inactivated Fetal Bovine Serum+400 μg/ml G418) in flat clear bottom 96-well plates. T24 mScarlet clone 5 cells were negative for nectin-4 expression. Plates were incubated at 37° C. with 5% CO2 overnight. Next day, ADCs were added at final working concentration from 50 nM, 1:4 serially diluted in culture medium. Plates were covered with Breathe-Easy® sealing membrane, placed in BioSpa and scanned in Cytation5 every day for 5 days.
Images of T24-mScarlet cells were captured and analyzed by Cytation5 with Gen5 Image Prime 3.11. Percentage of T24-mScarlet cell killing was calculated by decreased Integrated Intensity (area×mean intensity), normalized to zero hour and no treatment. Data was graphed and analyzed using GraphPad Prism version 9.5.1. IC50 was determined via log(inhibitor) vs. response-variable slope (four parameters) curve fitting.

Series [7] concerns T24-human Nectin-4-eGFP clone 3 cells. The series is described as follows: Internalization: degradation of nectin-4-eGFP signal by fluorescence imaging. It counts as cell-based. The note with it: ADC (Formula XI, DAR of 8), 24 h time course. On the procedure: T24 cell line was engineered to express human Nectin-4-eGFP and clonally selected for high expression. […] human Nectin-4-eGFP clone 3 cells were plated at 12,000 cells per well, in black clear-bottom CellCarrier Ultra 384-well microplates (Perkin Elmer) in complete culture medium (McCoy's 5A, modified, +10% FBS+Glutamax+400 μg/mL G418+Pen/Strep). Plates were covered with AeraSeal™ Sealing Films and incubated overnight at 37° C., 5% CO2. Next day, antibodies and ADCs were added to cells, starting at 300 nM at 1:3 dilution. Plates were covered with AeraSeal™ and placed in incubator for imaging on PerkinElmer Opera Phenix Screening System over a 24 h time course. Data were processed and analyzed in Harmony and Microsoft Excel and graphed in GraphPad Prism.

Series [8] deals with HEKα cells (normal human epidermal keratinocytes). Briefly: Binding to normal human epidermal keratinocytes by flow cytometry. The note with it: ADC (Formula XI, DAR of 8); read-out: EC50 of cell surface binding to normal human epidermal keratinocytes.
Experimental: To characterize binding of nectin-4 antibodies and ADCs of the present disclosure to normal human epidermal keratinocytes, HEKα cells were plated in 150×25 mm tissue culture dish (Corning Inc.) in complete culture medium (Dermal Cell Basal Medium+Keratinocytes Growth Kit, ATCC) at 1 million per well to achieve confluency within 24 hours. The differentiation process progressed for an additional 5-10 days. Following the induction of differentiation, cells were dissociated with 2 mg/mL Type XI Collagenase from Clostridium histolyticum (Sigma-Aldrich) at 37° C. Cells were counted and aliquoted to a V-bottom polypropylene 96-well plate (Thermo Scientific Nunc) at 10^5 cells/well. Antibodies and ADCs were added to cells starting at 300 nM, 1:4 serially diluted in assay buffer (1×DPBS containing 2% FBS, Gibco). Cells were incubated on a microplate shaker at 4° C., protected from light for 1 hour. After incubation, cells were washed twice with 200 uL/well of assay buffer and stained with Alexa Fluor 647-conjugated AffiniPure F(ab')2 Fragment Goat Anti-Human IgG (H+L) (Jackson ImmunoResearch) at 1:1,000 dilution. Following an hour incubation at 4° C., cells were washed twice with 200 uL/well of assay buffer and stained with Zombie Green fixable viability dye (BioLegend) at 1:2,000 dilution. Cells were incubated on a microplate shaker at 4° C. for 20 minutes. […]
In series [9] the test system is NCI-H1781 cells. The series is described as follows: ADC cytotoxicity (CellTiter-Glo), low nectin-4 expression line. It counts as cell-based. The note with it: NCI H1781, 5 days, ADC Formula XI DAR 8.
Experimental: NCI-H1781 cells, a low expression cell line, were seeded in white clear-bottom 96-well tissue culture plates in culture medium (RPMI 1640+1× GlutaMax+10% Heat Inactivated Fetal Bovine Serum+1 mM sodium pyruvate). Cells were incubated at 37° C. with 5% CO2 overnight. Next day, ADCs were added at final working concentration from 100 nM, 1:3 serially diluted in culture medium. Plates were covered with Breathe-Easy® sealing membrane and incubated at 37° C. with 5% CO2. Plates were read after 5 days treatment using CellTiter-Glo Luminescent Cell Viability Assay. 100 ul/well CellTiter-Glo reagent were incubated in plates at room temperature for 10 min. Luminescence was read in the SpectraMax M5e. RLUs (Relative Light Units) were obtained with SoftMax Pro 5.4. Percentage of cell killing was calculated against no treatment as 0%. Data was graphed and analyzed using GraphPad Prism version 9.5.1. IC50 was determined via log(inhibitor) vs. response-variable slope (four parameters) curve fitting.
Series [10] concerns T24-human nectin-4 clone 108. The series is described as follows: ADC cytotoxicity (CellTiter-Glo), high nectin-4 expression line. It counts as cell-based. The note with it: T24 Nectin-4 clone 108, 5 days, ADC Formula XI DAR 8.
Experimental: Plates were read after 5 days treatment using CellTiter-Glo Luminescent Cell Viability Assay. 100 ul/well CellTiter-Glo reagent were incubated in plates at room temperature for 10 min. Luminescence was read in the SpectraMax M5e. RLUs (Relative Light Units) were obtained with SoftMax Pro 5.4. Percentage of cell killing was calculated against no treatment as 0%. Data was graphed and analyzed using GraphPad Prism version 9.5.1. IC50 was determined via log(inhibitor) vs. response-variable slope (four parameters) curve fitting.
T24 cell line was engineered to express human nectin-4 and clonally selected. T24-human nectin-4 clone 108, a high expression clonal cell line, was seeded in culture medium (McCoy's 5A+1× GlutaMax+10% Heat Inactivated Fetal Bovine Serum+400 μg/ml G418). ADCs were added at final working concentration from 200 nM, 1:4 serially diluted in culture medium for 5 days.
The test system of series [11] is UM-UC-3 Nectin4 clone F7 xenograft. Briefly: Tumor xenograft, high nectin-4 expression. It counts as in vivo, mice (nu/nu). The note with it: UMUC3 Nectin-4 clone F7 xenograft, single dose 2 mg/kg, day 40. On the procedure: In order to test the efficacy of the nectin-4 ADCs of the present disclosure, which have effector null mutations in the Fc region, and to compare to the enfortumab antibody, which has wildtype Fc and in an ADC with the same payload background as the ones of this disclosure, two tumor xenograft models with either high or moderate nectin-4 expression were tested as described. Immune compromised female mice (nu/nu) between 5-8 weeks of age with weight 18-20 grams were implanted unilaterally on the right flank with UM-UC-3 Nectin4 clone F7 cells with high nectin-4 expression. […] The test articles were given at a single dose (2 mg/kg) formulated with 5% dextrose. Tumors were measured biweekly until Day 40.

Series [12] deals with MDA-MB-468 xenograft. The series is described as follows: Tumor xenograft, moderate nectin-4 expression. It counts as in vivo, NSG mice. The note with it: MDAMB468 xenograft, single dose 2 mg/kg, day 71. On the procedure:
In a separate study, female NSG mice between 5-6 weeks of age were injected subcutaneously with MDA-MB-468 cells with moderate Nectin-4 expression. When tumors reached approximately 150-250 mm^3; animals were matched by tumor volume into treatment or control groups and dosing initiated (Day 0, n=8 per group). The test articles were given at a single dose (2 mg/kg) formulated with 5% Dextrose. Tumors were measured biweekly until Day 71.
In both models, a 2 mg/kg single dose treatment of either the nectin-4 ADCs (exemplified herein with each of Abs1-8 conjugated as in Formula XI, and with a DAR of 8) or benchmark enfortumab ADC (enfortumab conjugated with Formula XI, and with a DAR of 8) was used. Tumor growth was measured at day 40 for UMUC3 Nectin-4 clone F7 and day 71 for MDAMB468 xenografts.

Enfortumab vedotin [reference compound]: the pIC50 in [1] (UMUC3-Luc-GFP + UMUC3-hNectin4 clone F7, ratio 4:1, 5 days, read-out: IC50 of bystander effect) was 8.37; in series [3] it was 9.46. In series [1] (UMUC3-hNectin-4 cloneF7/UMUC3-Luciferase-GFP 4:1, 5 days), the “Bystander effect (in words)” value is reported as “much less potent bystander effect”. Besides, the “Activity against MMAE-resistant cells” value in series [2] is listed as “lost efficacy”.
In series [4], `CC[C@H](C)[C@@H]([C@@H](CC(=O)N1CCC[C@H]1[C@H](OC)[C@@H](C)C(=O)N[C@H](C)[C@@H](O)c1ccccc1)OC)N(C)C(=O)[C@@H](NC(=O)[C@@H](NC)C(C)C)C(C)C` [MMAE] (H-[NMeV]V[Dil][Dolaproine]-X1) showed a negative logarithm of the IC50 (pIC50) of 9.42.
For Enfortumab, the CDC potential result in series [5] is “did not show CDC potential”. Also, the pIC50 in series [6] is 10.23; in series [9], 10.39; in [10] it was 10.13. Moreover, the “% activity (max GFP signal loss compared to enfortumab mAb (100%))” value in [7] came out at 119.9%. Moreover, the negative-log EC50 (pEC50) in series [7] (read-out: EC50 of nectin-4-eGFP signal loss) was 8.59; in [8] it was 10.52.
Turning to “Enfortumab ADC: benchmark: enfortumab conjugated with Formula XI, and with a DAR of 8 [reference compound]”, the figures for the Mean tumor volume in series [11] and in series [12] were 812.22 mm^3 and 272.28 mm^3, respectively.
